Reference: patent US10196442B2, “Methods of inhibiting growth of a colon cancer tumor in a subject by administering monoclonal antibodies to G protein-coupled receptor 49 (GPR49)” (Bionomics Inc., priority 2011, dated 2019)

Columns and labels:
[1] = system: CT1 primary xenograft cells; test: CT1 primary xenograft, murine mAbs in combination with Irinotecan; format: in vivo, SCID beige female mice; conditions: Irinotecan 10 mg/kg IP once per day for the first 5 days
Procedure: Single agent in vivo efficacy of murine antibodies 14F7.1, 18G7.1, 5B10.1, 14A8.1, 1B3.5 was evaluated in a primary colon tumor xenograft model system using CT1 primary xenograft cells. CT1 is a primary colorectal (CRC) in vivo xenograft tumor established from a fresh CRC patient tumor sample. The mutational status was determined by Ion Torrent deep sequencing to identify oncogene mutations. Approximately 5-15% of CT1 tumors express GPR49. SCID beige female mice were inoculated with CT1 tumor cells and monitored for tumor growth. Mice were randomized at day 0 into groups of 10 when mean tumor volume reached 175 mm^3. Chemotherapeutic Irinotecan was administered IP at 10 mg/kg once per day for the first 5 days. The antibodies were administered intraperitoneally (i.p.) at 15 mg/kg administered twice weekly for 4 weeks. Tumors were measured at the indicated intervals post-inoculation for total tumor volume.

colon tumor cells = test: Secondary transplant tumor formation after GPR49 mAb+irinotecan (Example 30); format: in vivo, mice; conditions: 140 day follow-up
From the text: Isolated tumor cells from control or GPR49 mAb+irinotecan treated tumors from the in vivo study outlined in Example 3 were harvested, pooled, dissociated and re-implanted in a limiting dilution secondary transplant assay to measure cancer stem cell frequency. For each treatment group, 8 mice were implanted with 10, 30, 100 cells. […]

GPR49 = molecular target: T1, GPR49 (Homo sapiens, UniProt O75473); test: Internalization of GPR49 in Lovo colon tumor cells (confocal); format: cell-based; conditions: 10 ug/ml, 37° C., 60 min
T1 construct: endogenous in cells; host or cells: Lovo colon tumor cells
T1 sequence (O75473 22-907): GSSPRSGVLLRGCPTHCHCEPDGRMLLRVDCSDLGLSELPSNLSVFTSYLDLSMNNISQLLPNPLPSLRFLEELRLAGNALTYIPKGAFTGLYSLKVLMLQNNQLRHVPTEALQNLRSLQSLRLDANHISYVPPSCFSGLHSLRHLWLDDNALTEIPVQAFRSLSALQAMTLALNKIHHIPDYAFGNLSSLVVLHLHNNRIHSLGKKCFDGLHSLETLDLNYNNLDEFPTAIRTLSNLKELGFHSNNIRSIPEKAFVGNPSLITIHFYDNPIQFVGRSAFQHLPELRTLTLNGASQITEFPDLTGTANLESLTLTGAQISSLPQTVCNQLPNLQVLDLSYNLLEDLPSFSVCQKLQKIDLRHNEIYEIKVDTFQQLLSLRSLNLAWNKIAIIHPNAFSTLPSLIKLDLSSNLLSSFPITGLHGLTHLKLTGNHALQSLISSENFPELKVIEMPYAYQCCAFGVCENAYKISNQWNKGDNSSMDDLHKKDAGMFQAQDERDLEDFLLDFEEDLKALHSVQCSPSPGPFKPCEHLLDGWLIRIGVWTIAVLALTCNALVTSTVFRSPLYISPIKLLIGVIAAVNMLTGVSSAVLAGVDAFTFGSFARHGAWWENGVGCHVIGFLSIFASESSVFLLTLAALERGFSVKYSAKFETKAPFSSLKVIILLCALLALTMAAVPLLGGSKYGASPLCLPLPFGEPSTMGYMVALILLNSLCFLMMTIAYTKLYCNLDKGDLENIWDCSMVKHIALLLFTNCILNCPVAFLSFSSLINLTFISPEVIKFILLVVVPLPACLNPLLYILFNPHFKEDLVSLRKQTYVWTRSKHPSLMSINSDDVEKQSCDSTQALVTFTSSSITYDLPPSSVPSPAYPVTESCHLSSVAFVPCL
Procedure: Methods: Lovo colon tumor cells were seeded at 50,000 cells per well into 8 well chamber slides (Becton Dickinson Collagen Type 1 coated culture slides, BD BioCoat™#354630) 48 hours prior to staining procedures. Cells were routinely maintained below 20 passages. On day of staining procedures, culture media was discarded from each well and replaced with 500 ul cold incubation buffer (MEM Eagle ATCC #30-2003+1% BSA). Cells were washed 2× with this buffer for 3 min each wash. 250 ul of each mAb (76C12, 78F05 and murine 10A9.2) to be tested was then added to the appropriate well at a concentration of 10 ug/ml, diluted in incubation media, and incubated on ice for 1 hour. A human anti-human-IGF-1R antibody was used as a positive control to compare degree of internalization. Antibody 5A7 (anti-Id mAb), IDEC152 (anti-CD23 IgG1 mAb) and no antibody were used as negative controls. After the 45 minutes incubation on ice, the time zero (1=0′) slide washed 3× with 500 ul of cold wash buffer (PBS+1% BSA+2% Goat serum) for 3 min each wash (slides always kept on ice). The t=0 slide was then fixed with 500 ul […] (diluted with PBS from 16% stock; EMS #15710) for 15 minutes at room temperature. The t=0 slide was then washed again 3× with cold wash buffer for 3 minutes each wash, then left on ice. […]

| internalization of GPR49 (GPR49) | Compound | tumor inhibition by Irinotecan alone [1] [%] | average size of tumors (colon tumor cells; cells from irinotecan treated tumors) [mm^3] | mice with tumors (colon tumor cells; cells from pre-treated tumors) |
| --- | --- | --- | --- | --- |
| – | CCc1c2c(nc3ccc(OC(=O)N4CCC(N5CCCCC5)CC4)cc13)-c1cc3c(c(=O)n1C2)COC(=O)[C@]3(O)CC [Irinotecan] | 45 | 1729 | 5/8 |
| did not bind or internalize | IDEC152: primatized anti-CD23 IgG1 mAb, negative control | – | – | – |
